Molecules are shown by their SMILES. Where two headings read alike, the source gives them in different places. A value given as a limit tells only on which side of the number the result lay.

Data set [1] in a line: Plasma protein binding (equilibrium dialysis), dog. The data set is classed as in vitro ADME. To be noted: 2 μM. On the procedure:
(§1) Frozen plasma (EDTA-K2 as anticoagulant) pooled from multiple individuals of various species was used as a test matrix. The plasma was purchased from commercial vendors or prepared in house from animals. Warfarin was used as a positive control.
(§2) Isoxazoline compounds were spiked into the blank matrix at the final concentration of 2 μM.
(§3) A 150 μL aliquot of matrix sample was added to one side of the chamber in a 96-well equilibrium dialyzer plate (HTD dialysis) and an equal volume of dialysis buffer was added to the other side of the chamber. An aliquot of matrix sample was harvested before the incubation and used as T0 samples for recovery calculation. Triplicate incubations were performed.
(§4) The dialyzer plate was placed in a humidified incubator and rotated slowly for 4 hours at 37° C. After incubation, samples were taken from the matrix side as well as the buffer side. The plasma sample was matched with equal volume of blank buffer; and buffer samples were matched with equal volume of blank plasma. The matrix-matched samples were quenched with a stop solution containing internal standard.
(§5) The samples were analyzed by LC-MS/MS.
(§6) Then, % bound fraction at 4 hours (% bound=1−% unbound) and % recovery in incubates at 4 hours were calculated.
(§7) The stability of compounds in mouse (ms), rat (r), dog (d), cynomolgus monkey (cy), and human (hu) plasma is shown in Table 10 by the percentages of compounds remaining at two hours.
(In equilibrium dialysis only unbound substance equilibrates across the membrane.)

The nature of data set [2]: Hepatocyte stability assay, human. It counts as in vitro ADME. Conditions: hepatocytes. On the procedure: (§8) Example 7. In Vitro Metabolic Stability of Isoxazoline Compounds in cd-1 Mouse, sd Rat, Beagle Dog, Cynomolgus Monkey and Human Cryopreserved Hepatocytes
(§9) Isoxazoline compounds (at 1 μM) were incubated with cryopreserved hepatocytes (0.5×10^6 cells per mL) in duplicates (n=2) at 37° C. using 96-well plate format.
(§10) Time points were 0, 15, 30, 60 and 90 minutes in separate plates and medium control samples without cells at 0 and 90 minutes were also incubated. At each time point the reaction was stopped by adding organic solution containing internal standard (IS).
(§11) Positive controls 7-ethoxycoumarin and 7-hydroxycoumarin were included in parallel.
(§12) The samples were analyzed by LC-MS/MS. Disappearance of the test compound was assessed based on peak area ratios of analyte/IS (no standard curve).
(§13) Intrinsic clearance and t½ values were then calculated.

The target of data set [3] is T1, CYP 1A2 (Homo sapiens, UniProt P05177).
T1 construct: individual CYPs in a pool of human liver microsomes; from tissue; host or cells: pooled human liver microsomes
T1 sequence (P05177 1-516): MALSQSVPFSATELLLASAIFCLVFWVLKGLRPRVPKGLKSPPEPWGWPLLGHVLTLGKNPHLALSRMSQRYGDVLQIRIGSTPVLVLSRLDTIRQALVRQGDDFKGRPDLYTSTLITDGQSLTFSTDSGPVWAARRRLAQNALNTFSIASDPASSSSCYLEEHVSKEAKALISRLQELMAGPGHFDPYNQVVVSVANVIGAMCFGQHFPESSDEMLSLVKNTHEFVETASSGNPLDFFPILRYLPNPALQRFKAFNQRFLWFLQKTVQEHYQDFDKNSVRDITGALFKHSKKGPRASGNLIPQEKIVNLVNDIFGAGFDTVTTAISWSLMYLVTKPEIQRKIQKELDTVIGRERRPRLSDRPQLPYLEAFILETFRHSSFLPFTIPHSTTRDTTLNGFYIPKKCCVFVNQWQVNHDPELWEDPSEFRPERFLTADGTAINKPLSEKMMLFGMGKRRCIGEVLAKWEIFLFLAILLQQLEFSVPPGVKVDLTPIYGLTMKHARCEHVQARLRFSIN
The experiment in a line: Reversible CYP inhibition in human liver microsomes, CYP 1A2. The data set is classed as in vitro ADME. On the procedure: (§14) Reversible inhibition of cytochrome P450s (CYPs) in human liver microsomes was tested using prototypical, isoform-selective activity assays for individual CYPs in a pool of human liver microsomes (i.e., testosterone for CYP 3A4, phenacetin for CYP 1A2, bufuralol for CYP 2D6, S-mephenytoin for CYP 2C19, and diclofenac for CYP 2C9). The assay provides 8-point IC50 determinations in the range of 0.010 to 50 μM drug concentrations for major isoforms of CYP450.
On the technique in general: Liver microsomes are vesicles of endoplasmic reticulum, rich in cytochrome P450 enzymes.

A short description of data set [4]: Hepatocyte stability assay, mouse. It counts as in vitro ADME. How it is done:
as §8, §9, §10, §11, §12, §13

Data set [5] is described as follows: Solubility at pH 6.8. To be noted: pH 6.8, aqueous buffer. It counts as physicochemical.
A short description of data set [6]: Hepatocyte stability assay, dog. It counts as in vitro ADME. Conditions: Beagle, hepatocytes. How it is done: as §8, §9, §10, §11, §12, §13
Data set [7] has as its target T2, CYP 2C19 (Homo sapiens, UniProt P33261).
T2 construct: individual CYPs in a pool of human liver microsomes; from tissue; host or cells: pooled human liver microsomes
The experiment in a line: Reversible CYP inhibition in human liver microsomes, CYP 2C19. It counts as in vitro ADME. To be noted: S-mephenytoin, read-out: Cyp microsome IC50, 2C19. On the procedure: as §14

The nature of data set [8]: Plasma protein binding (equilibrium dialysis), mouse. It counts as in vitro ADME. Conditions: 2 μM. On the procedure: as §1, §2, §3, §4, §5, §6, §7
In data set [9] the target is T3, CYP 2D6 (Homo sapiens, UniProt P10635).
T3 construct: individual CYPs in a pool of human liver microsomes; from tissue; host or cells: pooled human liver microsomes
T3 sequence (P10635 whole entry): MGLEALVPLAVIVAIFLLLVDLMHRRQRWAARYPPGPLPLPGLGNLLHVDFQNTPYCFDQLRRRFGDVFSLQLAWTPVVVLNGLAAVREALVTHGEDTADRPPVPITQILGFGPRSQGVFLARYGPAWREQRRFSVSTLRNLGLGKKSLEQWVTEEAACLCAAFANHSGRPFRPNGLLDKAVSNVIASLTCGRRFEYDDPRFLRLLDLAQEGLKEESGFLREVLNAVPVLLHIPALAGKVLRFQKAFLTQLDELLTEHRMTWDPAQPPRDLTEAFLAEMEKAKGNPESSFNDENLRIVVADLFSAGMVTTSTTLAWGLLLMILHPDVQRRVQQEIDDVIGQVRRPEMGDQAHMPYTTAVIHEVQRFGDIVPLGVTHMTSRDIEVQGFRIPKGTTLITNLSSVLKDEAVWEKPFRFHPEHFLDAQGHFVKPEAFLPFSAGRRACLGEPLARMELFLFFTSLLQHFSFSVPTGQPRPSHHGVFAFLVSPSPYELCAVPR
As to the kind of experiment: Reversible CYP inhibition in human liver microsomes, CYP 2D6. Conditions: bufuralol, read-out: Cyp microsome IC50, 2D6. The data set is classed as in vitro ADME. On the procedure: as §14

The nature of data set [10]: Hepatocyte stability assay, cynomolgus monkey. The data set is classed as in vitro ADME. Conditions: hepatocytes. How it is done:
as §8, §9, §10, §11, §12, §13

Data set [11] addresses T4, CYP 3A4 (Homo sapiens, UniProt P08684).
T4 construct: individual CYPs in a pool of human liver microsomes; from tissue; host or cells: pooled human liver microsomes
The experiment in a line: Reversible CYP inhibition in human liver microsomes, CYP 3A4. It counts as in vitro ADME. How it is done: as §14

Data set [12] relates to Anopheles. The experiment in a line: Anopheles membrane feeding assay, EC90 at day 7. The data set is classed as in vivo. To be noted: 168 h. The text has this:
Isoxazoline compounds fluralaner or afoxolaner were reconstituted in 50% human serum and 50% red blood cells and administered to adult Anopheles stephensi mosquitos via standard membrane feeding. […] FIG. 2A represents a plot of viable Anopheles stephensi versus fluralaner concentration at each day of assessment. FIG. 2B represents a plot of viable Anopheles stephensi versus afoxolaner concentration at each day of assessment. […] The IC50 values of each compound for Anopheles death were determined by logistic regression using a least squares method to find the best fit and are shown in Table 1. IC50 values were calculated by applying a four-parameter logistic regression model using a least-squares method to find the best fit using the Graphpad Prism 5.0 software package.

Setting [13] is: human (hu), 1 μM, read-out: Hepatocyte stability (t½).
[14] abbreviates: CD-1, hepatocytes, mouse (ms), 1 μM, read-out: Hepatocyte stability (t½).
Setting [15] is: dog (d), 1 μM, read-out: Hepatocyte stability (t½).
Setting [16] is: cynomolgus monkey (cy), 1 μM, read-out: Hepatocyte stability (t½).

T4 sequence (P08684 whole entry): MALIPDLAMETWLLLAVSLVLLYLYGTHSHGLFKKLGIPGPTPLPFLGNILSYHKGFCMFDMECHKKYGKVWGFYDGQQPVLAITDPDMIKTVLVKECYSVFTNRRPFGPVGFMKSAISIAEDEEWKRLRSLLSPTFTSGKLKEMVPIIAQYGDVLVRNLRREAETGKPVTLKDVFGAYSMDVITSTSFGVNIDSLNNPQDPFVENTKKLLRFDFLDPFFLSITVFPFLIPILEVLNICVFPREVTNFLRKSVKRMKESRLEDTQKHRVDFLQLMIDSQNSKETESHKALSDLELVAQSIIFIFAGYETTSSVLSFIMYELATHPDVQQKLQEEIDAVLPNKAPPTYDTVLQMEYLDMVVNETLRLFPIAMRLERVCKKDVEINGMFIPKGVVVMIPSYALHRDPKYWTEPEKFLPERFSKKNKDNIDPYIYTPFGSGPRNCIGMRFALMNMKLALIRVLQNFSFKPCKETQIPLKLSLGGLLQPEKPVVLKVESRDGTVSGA
T2 sequence (P33261 whole entry): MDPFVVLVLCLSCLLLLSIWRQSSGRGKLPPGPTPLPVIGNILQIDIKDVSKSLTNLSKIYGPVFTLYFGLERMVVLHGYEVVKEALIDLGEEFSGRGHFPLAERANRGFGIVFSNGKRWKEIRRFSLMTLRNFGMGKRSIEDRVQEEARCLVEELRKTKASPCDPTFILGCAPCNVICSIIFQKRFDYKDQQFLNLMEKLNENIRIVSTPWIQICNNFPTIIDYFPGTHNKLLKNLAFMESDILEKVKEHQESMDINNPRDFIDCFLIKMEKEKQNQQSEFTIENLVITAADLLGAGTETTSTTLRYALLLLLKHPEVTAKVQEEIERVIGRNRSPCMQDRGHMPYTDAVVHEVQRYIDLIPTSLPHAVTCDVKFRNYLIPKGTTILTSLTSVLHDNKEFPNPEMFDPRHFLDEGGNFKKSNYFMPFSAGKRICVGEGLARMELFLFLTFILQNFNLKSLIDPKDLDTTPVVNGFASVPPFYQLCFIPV

In general, IC50 refers to the concentration that inhibits the measured activity by half. A word on the solubility: it is the dissolved amount per volume that the medium holds. As usually defined, the EC90 is the concentration at which the effect reaches the 90% level. Consider `O=C(CNC(=O)c1ccc(C2=NO[C@](c3cc(Cl)cc(C(F)(F)F)c3)(C(F)(F)F)C2)c2ccccc12)NCC(F)(F)F` (racemic) [Afoxolaner, afoxolaner], for which the “Plasma protein % binding” value in data set [1] (dog (d), 4 hours) is >99.9 (d, hu) %; in data set [8] (mouse (ms), 4 hours), 97.8 (ms), %. Also, the half-life at 1 μM in data set [2] (setting [13]), in data set [4] (setting [14]), in [6] (setting [15]) and in data set [10] (setting [16]) was above 3.62 h each time. For the same compound, the IC50 in [3] is above 50 µM; in data set [7] it was 3.1 µM; in [9], above 50 µM; in data set [11], above 50 µM. Also, the solubility in [5] (read-out: Solubility (pH 6.8)) was below 1 µM. In data set [12], this compound registered a concentration for an effect of 90% (EC90) of 0.0081 µM.

As for `O=C(CNC(=O)c1ccc(C2=NO[C@@](c3cc(Cl)cc(Cl)c3)(C(F)(F)F)C2)c2ccccc12)NCC(F)(F)F` [(S)-4-(5-(3,5-dichlorophenyl)-5-(trifluoromethyl)-4,5-dihydroisoxazol-3-yl)-N-(2-oxo-2-((2,2,2-trifluoroethyl)amino)ethyl)-1-naphthamide], the “Plasma protein % binding” value in [1] (dog, 4 h) is >99.9% (ms, r, d, hu); in data set [8] (mouse, 4 h), >99.9% (ms, r, d, hu). Moreover, the half-life at 1 μM came to 1.05 h in data set [2] (human); 0.983 h in [4] (CD-1, mouse, hepatocytes); 0.683 h in data set [6] (dog); 0.7 h in data set [10] (cynomolgus monkey). In addition, the IC50 in [3] (human liver microsomes, phenacetin, read-out: Cyp microsome IC50, 1A2) is above 50 µM; in [7], 0.6 µM; in [9], 17.2 µM; in data set [11], above 50 µM. Moreover, the solubility in [5] is below 1 µM. In addition, the EC90 in data set [12] (day 7, read-out: EC90) is 0.008 µM.

As for `O=C(CNC(=O)c1ccc(C2=NO[C@@](c3cc(Cl)cc(C(F)(F)F)c3)(C(F)(F)F)C2)c2ccccc12)NCC(F)(F)F` [(S)-afoxolaner], the “Plasma protein % binding” value in data set [1] (dog (d), 4 hours) is reported as 99.5 (d) %; in data set [8] (mouse (ms), 4 hours) it was >99.9 (ms, r, hu), %. Besides, the half-life at 1 μM came out at 1.1 h in data set [2] (setting [13]), 1.07 h in data set [4] (setting [14]), 0.533 h in [6] (setting [15]) and 0.833 h in data set [10] (setting [16]). For the same compound, the IC50 in data set [3] is above 50 µM; in data set [7], 1.1 µM; in [9] it was 19 µM; in data set [11], above 50 µM. In addition, the solubility in data set [5] (read-out: Solubility (pH 6.8)) was below 1 µM. For the same compound, the concentration for an effect of 90% (EC90) in data set [12] is 0.008 µM.

The record behind these values is patent US20200061026A1, “METHODS AND COMPOSITIONS FOR PREVENTING VECTOR-BORNE DISEASE TRANSMISSION” (The Scripps Research Institute, priority 2016, published 2020).
